Results: patent publication US9770026B2, “Substituted pyrimidine compound and uses thereof” (Shenyang Sinochem Agrochemicals R&D Co., Ltd., priority 2012, dated 2017)

Key:
corn rust = test: protectant activity in vivo against corn rust; settings: Zea mays, 168 h; for pest or weed control at 400 µg/mL: read-out: control effect against corn rust (%), 400 mg/L
armyworm = test: bioactivity test against armyworm, airbrush spray; format: in vivo; settings: 72 h; for pest or weed control at 600 µg/mL: 600 mg/L, read-out: Insecticidal activity against armyworm (%)
carmine spider mite = test: bioactivity test against carmine spider mite, airbrush spray; format: in vivo; settings: Tetranychus cinnabarinus, 72 h; for pest or weed control at 600 µg/mL: 600 mg/L, contrastive test, read-out: Insecticidal activity against carmine spider mite (% )
Outline: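 Broadbean seedlings infested with adult mites were sprayed with compound (acetone/methanol stock diluted in 0.1% Tween 80 water) by airbrush at 0.7 kg/cm^2, 0.5 ml. Three replicates were run. Mortality was scored after 72 hrs.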

[1] = system: Green peach aphids (Myzus Persicae Sulzer); test: bioactivity test against green peach aphid, airbrush foliar spray; format: in vivo; settings: Myzus persicae, foliar, 48 h; for pest or weed control at 600 µg/mL: 600 mg/L, contrastive test, read-out: Insecticidal activity against peach aphid (%)
Outline: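 Aphids (15-30 per cabbage leaf disc) on moist filter paper were airbrush-sprayed at 10 psi, 0.5 mL, with compound from acetone:methanol (1:1) diluted in water with 0.1% tween 80. Held at 25±1 C, 60±5% RH; survivors counted after 48 hrs to give death rates.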

cucumber downy mildew = test: protectant activity in vivo against cucumber downy mildew; settings: Cucumis sativus, 168 h; for pest or weed control at 400 µg/mL: read-out: control effect against cucumber downy mildew (%), 400 mg/L
wheat powdery mildew = test: protectant activity in vivo against wheat powdery mildew; settings: Triticum aestivum, 168 h; for pest or weed control at 400 µg/mL: read-out: control effect against wheat powdery mildew (%), 400 mg/L
Diamond back moth = test: insecticidal activity against diamond back moth, airbrush spray; format: in vivo; settings: 72 h; for pest or weed control at 600 µg/mL: 600 mg/L
Outline: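 Airbrush leaf-disc spray test: both faces of 2 cm cabbage discs received 0.5 ml of test solution at 0.7 kg/cm^2. Solutions were made in acetone:methanol (1:1) and brought to concentration with 0.1% Tween 80 in water. Ten second-instar larvae per disc, triplicates, were held at 25° C and 60˜70% R.H., with mortality recorded at 72 hrs.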

Q: With CCc1ncnc(NCc2ccc(Oc3c(Cl)cc([N+](=O)[O-])cc3Cl)cc2)c1Cl [CK66, reference compound] as the compound, how does the pest or weed control at 400 µg/mL (corn rust; protectant activity) read?
A: 0%

Q: What about the pest or weed control at 600 µg/mL (armyworm) of the same compound?
A: 0%

Q: And the pest or weed control at 600 µg/mL (carmine spider mite)?
A: 0%

Q: What about the pest or weed control at 600 µg/mL [1] of the same compound?
A: 0%

Q: What about the pest or weed control at 400 µg/mL (cucumber downy mildew; protectant activity) of the same compound?
A: 0%

Q: What about the pest or weed control at 400 µg/mL (wheat powdery mildew; protectant activity) of the same compound?
A: 0%

Q: What about the pest or weed control at 600 µg/mL (Diamond back moth) of the same compound?
A: 0%

Q: FC(F)(F)c1cnc(Oc2ccc(CCNc3ncnc(Cl)c3Cl)cc2)c(Cl)c1 [CK72, reference compound] was tested. Which pest or weed control at 6.25 µg/mL (corn rust; read-out: control effect against corn rust (%), 6.25 mg/L, protectant activity) did it give?
A: 0%

Q: What about the pest or weed control at 25 µg/mL (corn rust; read-out: control effect against corn rust (%), 25 mg/L, protectant activity) of the same compound?
A: 20%

Q: What about the pest or weed control at 100 µg/mL (corn rust; read-out: control effect against corn rust (%), 100 mg/L, protectant activity) of the same compound?
A: 80%

Q: And the pest or weed control at 400 µg/mL (corn rust; protectant activity)?
A: 100%

Q: What about the pest or weed control at 600 µg/mL (armyworm) of the same compound?
A: 71%

Q: What about the pest or weed control at 600 µg/mL (carmine spider mite) of the same compound?
A: 13%

Q: And the pest or weed control at 600 µg/mL [1]?
A: 55%

Q: What about the pest or weed control at 25 µg/mL (cucumber downy mildew; read-out: control effect against cucumber downy mildew (%), 25 mg/L, protectant activity) of the same compound?
A: 20%

Q: And the pest or weed control at 50 µg/mL (cucumber downy mildew; read-out: control effect against cucumber downy mildew (%), 50 mg/L, protectant activity)?
A: 40%

Q: And the pest or weed control at 100 µg/mL (cucumber downy mildew; read-out: control effect against cucumber downy mildew (%), 100 mg/L, protectant activity)?
A: 100%

Q: And the pest or weed control at 400 µg/mL (cucumber downy mildew; protectant activity)?
A: 100%

Q: What about the pest or weed control at 6.25 µg/mL (wheat powdery mildew; read-out: control effect against wheat powdery mildew (%), 6.25 mg/L, protectant activity) of the same compound?
A: 50%

Q: What about the pest or weed control at 25 µg/mL (wheat powdery mildew; read-out: control effect against wheat powdery mildew (%), 25 mg/L, protectant activity) of the same compound?
A: 60%

Q: What about the pest or weed control at 100 µg/mL (wheat powdery mildew; read-out: control effect against wheat powdery mildew (%), 100 mg/L, protectant activity) of the same compound?
A: 70%

Q: What about the pest or weed control at 400 µg/mL (wheat powdery mildew; protectant activity) of the same compound?
A: 100%

Q: And the pest or weed control at 600 µg/mL (Diamond back moth)?
A: 0%

Q: What does the source list for CCc1ncnc(NCCc2ccc(Oc3ncc(Cl)cc3Cl)cc2)c1Cl [Compound I-583]?
A: pest or weed control at 25 ppm (corn rust; read-out: protectant activity against corn rust in vivo, 25 ppm): 100%; pest or weed control at 100 ppm (corn rust; read-out: protectant activity against corn rust in vivo, 100 ppm): 100%; pest or weed control at 400 ppm (corn rust; read-out: protectant activity against corn rust in vivo, 400 ppm): 100%; pest or weed control at 600 ppm (armyworm; 600 ppm, mortality after 72 h): 100%; pest or weed control at 600 ppm (carmine spider mite; 600 ppm, mortality after 72 hrs): 100%; pest or weed control at 10 ppm ([1]; 10 ppm, death rate after 48 hrs): 80 to 99%; pest or weed control at 100 ppm ([1]; 100 ppm, death rate after 48 hrs): 100%; pest or weed control at 600 ppm ([1]; 600 ppm, death rate after 48 hrs): 100%; pest or weed control at 25 ppm (cucumber downy mildew; read-out: protectant activity against cucumber downy mildew in vivo, 25 ppm): 100%; pest or weed control at 50 ppm (cucumber downy mildew; read-out: protectant activity against cucumber downy mildew in vivo, 50 ppm): 80 to 99%; pest or weed control at 100 ppm (cucumber downy mildew; read-out: protectant activity against cucumber downy mildew in vivo, 100 ppm): 100%; pest or weed control at 400 ppm (cucumber downy mildew; read-out: protectant activity against cucumber downy mildew in vivo, 400 ppm): 100%; pest or weed control at 100 ppm (wheat powdery mildew; read-out: protectant activity against wheat powdery mildew in vivo, 100 ppm): 80 to 99%; pest or weed control at 400 ppm (wheat powdery mildew; read-out: protectant activity against wheat powdery mildew in vivo, 400 ppm): 80 to 99%; pest or weed control at 600 ppm (Diamond back moth; 600 ppm, mortality after 72 hrs, read-out: control (test results against diamond back moth)): 100%
